From article PMC5461819 (Peptides, 2015)
Where “and” joins values, the source holds several entries; their conditions need not be identical. Equal entries are not always repeated. Where two headings read alike, the source gives them in different places.

Columns and labels:
[1] = molecular target: T1, human BRS-3 (Homo sapiens, UniProt P32247); assay: Binding studies, inhibition of 125I-[D-Tyr6,β-Ala11,Phe13,Nle14]Bn-; conditions: hBRS-3/BALB cells
T1 sequence (P32247 1-399): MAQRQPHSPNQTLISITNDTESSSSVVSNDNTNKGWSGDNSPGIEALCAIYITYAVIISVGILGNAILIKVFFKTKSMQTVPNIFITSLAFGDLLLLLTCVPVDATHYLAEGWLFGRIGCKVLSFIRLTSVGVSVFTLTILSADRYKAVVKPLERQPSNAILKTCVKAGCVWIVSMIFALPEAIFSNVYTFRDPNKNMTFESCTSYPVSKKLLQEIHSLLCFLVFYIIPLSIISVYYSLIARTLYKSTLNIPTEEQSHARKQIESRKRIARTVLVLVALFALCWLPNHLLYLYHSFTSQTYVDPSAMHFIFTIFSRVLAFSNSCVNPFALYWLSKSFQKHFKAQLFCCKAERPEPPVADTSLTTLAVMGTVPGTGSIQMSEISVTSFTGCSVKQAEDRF

[2] = molecular target: human GRPR (Homo sapiens, UniProt P30550); assay: [3H]Inositol phosphate generation, hGRPR/BALB cells; format: cell-based; conditions: read-out: EC50 Human GRPR hGRPR/BALB; [3H]IP production, 60 min, 37°C
human GRPR, sequence (P30550 whole entry): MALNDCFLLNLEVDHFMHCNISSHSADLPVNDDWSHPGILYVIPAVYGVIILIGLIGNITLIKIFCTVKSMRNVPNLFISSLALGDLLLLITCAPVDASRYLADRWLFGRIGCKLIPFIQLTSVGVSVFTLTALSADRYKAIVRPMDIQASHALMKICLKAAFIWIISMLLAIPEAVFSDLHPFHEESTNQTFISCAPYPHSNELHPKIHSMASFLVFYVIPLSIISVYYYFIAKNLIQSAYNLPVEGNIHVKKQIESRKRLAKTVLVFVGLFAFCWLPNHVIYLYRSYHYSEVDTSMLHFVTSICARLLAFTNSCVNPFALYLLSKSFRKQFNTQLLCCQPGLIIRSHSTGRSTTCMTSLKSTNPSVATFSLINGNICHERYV

[3] = molecular target: T2, rat NMBR (Rattus norvegicus, UniProt P24053); assay: [3H]Inositol phosphate generation, rNMBR/BALB cells; format: cell-based; conditions: read-out: EC50 Rat NMBR rNMBR/BALB; [3H]IP production, 60 min, 37°C
T2 sequence (P24053 1-390): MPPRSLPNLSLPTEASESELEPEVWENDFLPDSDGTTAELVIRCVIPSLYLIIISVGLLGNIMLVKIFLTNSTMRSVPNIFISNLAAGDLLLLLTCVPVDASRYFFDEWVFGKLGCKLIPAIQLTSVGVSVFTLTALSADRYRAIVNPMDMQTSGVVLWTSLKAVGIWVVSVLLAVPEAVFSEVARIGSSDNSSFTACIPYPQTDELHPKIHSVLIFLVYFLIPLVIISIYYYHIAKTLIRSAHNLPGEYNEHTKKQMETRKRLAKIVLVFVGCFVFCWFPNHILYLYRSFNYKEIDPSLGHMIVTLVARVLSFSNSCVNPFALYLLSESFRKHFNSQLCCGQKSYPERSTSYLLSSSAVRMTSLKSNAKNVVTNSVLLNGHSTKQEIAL

[4] = molecular target: rat GRPR (Rattus norvegicus, UniProt P52500); assay: [3H]Inositol phosphate generation, rGRPR/AR42J cells; format: cell-based; conditions: read-out: EC50 Rat GRPR rGRPR/AR42J; [3H]IP production, 60 min, 37°C
rat GRPR, sequence (P52500 whole entry): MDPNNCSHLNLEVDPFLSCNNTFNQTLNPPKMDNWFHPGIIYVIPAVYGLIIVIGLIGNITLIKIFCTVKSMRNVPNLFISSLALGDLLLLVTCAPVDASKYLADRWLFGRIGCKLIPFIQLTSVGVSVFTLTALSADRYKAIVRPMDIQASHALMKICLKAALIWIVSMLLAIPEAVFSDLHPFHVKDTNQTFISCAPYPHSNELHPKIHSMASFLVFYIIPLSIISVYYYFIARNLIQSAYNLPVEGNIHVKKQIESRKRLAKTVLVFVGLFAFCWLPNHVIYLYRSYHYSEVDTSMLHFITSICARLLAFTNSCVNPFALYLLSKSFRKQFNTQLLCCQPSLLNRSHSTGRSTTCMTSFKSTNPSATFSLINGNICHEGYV

[5] = molecular target: T3, rat BRS-3 (Rattus norvegicus, UniProt Q8K418); assay: [3H]Inositol phosphate generation, rBRS-3/BALB cells; format: cell-based; conditions: for EC50: read-out: EC50 Rat BRS-3 rBRS-3/BALB, [3H]IP production, 60 min, 37°C
T3 sequence (Q8K418 1-399): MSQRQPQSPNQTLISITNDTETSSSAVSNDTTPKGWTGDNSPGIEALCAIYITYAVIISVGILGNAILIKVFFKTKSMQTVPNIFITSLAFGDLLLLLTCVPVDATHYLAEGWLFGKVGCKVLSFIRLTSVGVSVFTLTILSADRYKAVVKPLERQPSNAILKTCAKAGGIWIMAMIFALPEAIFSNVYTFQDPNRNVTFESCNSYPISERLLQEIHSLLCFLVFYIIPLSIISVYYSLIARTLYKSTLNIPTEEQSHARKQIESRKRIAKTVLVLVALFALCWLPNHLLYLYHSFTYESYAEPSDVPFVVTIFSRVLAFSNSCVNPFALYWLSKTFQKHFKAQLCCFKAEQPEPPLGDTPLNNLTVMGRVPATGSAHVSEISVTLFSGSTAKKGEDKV

[6] = molecular target: mouse GRPR (Mus musculus, UniProt P21729); assay: [3H]Inositol phosphate generation, mGRPR/BALB cells; format: cell-based; conditions: read-out: EC50 Mouse GRPR mGRPR/BALB; [3H]IP production, 60 min, 37°C
mouse GRPR, sequence (P21729 whole entry): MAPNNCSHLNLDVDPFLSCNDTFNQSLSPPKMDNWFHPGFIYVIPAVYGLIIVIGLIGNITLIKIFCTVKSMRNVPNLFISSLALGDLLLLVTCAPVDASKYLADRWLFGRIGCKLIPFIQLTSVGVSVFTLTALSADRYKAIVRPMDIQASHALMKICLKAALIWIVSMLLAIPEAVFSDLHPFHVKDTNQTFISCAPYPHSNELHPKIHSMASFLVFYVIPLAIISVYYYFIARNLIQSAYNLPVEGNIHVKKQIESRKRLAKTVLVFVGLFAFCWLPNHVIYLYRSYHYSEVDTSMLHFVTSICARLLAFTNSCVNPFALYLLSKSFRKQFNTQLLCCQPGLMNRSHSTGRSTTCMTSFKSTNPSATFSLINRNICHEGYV

[7] = molecular target: human NMBR (Homo sapiens, UniProt P28336); assay: [3H]Inositol phosphate generation, hNMBR/BALB cells; format: cell-based; conditions: read-out: EC50 Human NMBR hNMBR/BALB; [3H]IP production, 60 min, 37°C
human NMBR, sequence (P28336 whole entry): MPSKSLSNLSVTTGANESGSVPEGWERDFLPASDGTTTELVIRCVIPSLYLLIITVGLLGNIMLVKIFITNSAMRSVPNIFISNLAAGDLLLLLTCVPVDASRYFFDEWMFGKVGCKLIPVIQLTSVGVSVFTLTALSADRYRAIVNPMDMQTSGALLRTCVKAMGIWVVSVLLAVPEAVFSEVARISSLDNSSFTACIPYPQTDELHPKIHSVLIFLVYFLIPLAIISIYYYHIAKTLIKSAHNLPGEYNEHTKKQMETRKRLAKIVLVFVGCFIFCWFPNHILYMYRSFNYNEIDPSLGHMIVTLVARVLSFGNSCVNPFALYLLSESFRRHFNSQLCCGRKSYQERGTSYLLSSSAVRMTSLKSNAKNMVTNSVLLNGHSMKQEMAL

[8] = molecular target: T1, human BRS-3; assay: [3H]Inositol phosphate generation; format: cell-based; conditions: for EC50: read-out: EC50 Human BRS-3 hBRS-3/BALB, [3H]IP production, 60 min, 37°C
[9] = molecular target: T4, mouse NMBR (Mus musculus, UniProt O54799); assay: [3H]Inositol phosphate generation, mNMBR/BALB cells; format: cell-based; conditions: read-out: EC50 Mouse NMBR mNMBR/BALB; [3H]IP production, 60 min, 37°C
T4 sequence (O54799 1-390): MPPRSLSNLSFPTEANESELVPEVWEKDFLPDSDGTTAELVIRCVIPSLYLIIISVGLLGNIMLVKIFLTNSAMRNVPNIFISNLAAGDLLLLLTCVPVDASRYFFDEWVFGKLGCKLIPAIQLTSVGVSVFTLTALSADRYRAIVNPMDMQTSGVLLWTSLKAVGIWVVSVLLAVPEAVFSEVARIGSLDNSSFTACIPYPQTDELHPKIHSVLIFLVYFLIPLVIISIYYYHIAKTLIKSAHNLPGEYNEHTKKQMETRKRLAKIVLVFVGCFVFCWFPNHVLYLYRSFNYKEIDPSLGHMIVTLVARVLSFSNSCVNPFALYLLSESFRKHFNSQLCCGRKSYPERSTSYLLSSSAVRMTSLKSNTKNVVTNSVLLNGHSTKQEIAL

[10] = molecular target: T5, mouse BRS-3 (Mus musculus, UniProt O54798); assay: [3H]Inositol phosphate generation, mBRS-3/BALB cells; format: cell-based; conditions: for EC50: read-out: EC50 Mouse BRS-3 mBRS-3/BALB, [3H]IP production, 60 min, 37°C
T5 sequence (O54798 1-399): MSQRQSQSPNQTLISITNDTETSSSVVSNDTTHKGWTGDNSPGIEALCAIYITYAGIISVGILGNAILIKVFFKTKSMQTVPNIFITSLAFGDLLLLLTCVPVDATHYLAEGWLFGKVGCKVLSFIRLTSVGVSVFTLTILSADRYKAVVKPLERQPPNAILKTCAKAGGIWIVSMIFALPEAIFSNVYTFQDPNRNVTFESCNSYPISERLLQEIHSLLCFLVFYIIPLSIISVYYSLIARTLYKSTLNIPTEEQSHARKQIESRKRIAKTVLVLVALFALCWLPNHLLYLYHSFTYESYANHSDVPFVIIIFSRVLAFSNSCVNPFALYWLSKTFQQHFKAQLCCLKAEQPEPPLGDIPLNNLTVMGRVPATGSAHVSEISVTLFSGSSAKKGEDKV

| Structure (SMILES) | lower affinity compared with 9G [1] | EC50 [2] | EC50 [3] | EC50 [4] | less potent than MK-5046 ([5]; rBRS-3/BALB cells) | lower potency than 9G and 3F ([5]; rBRS-3/BALB cells) | EC50 [5] | EC50 [6] | EC50 [7] | lower potency than 9G or 9D ([8]; hBRS-3/BALB cells) | EC50 [8] | EC50 ([8]; listed as 9 F) | EC50 [9] | less potent than MK-5046 ([10]; mBRS-3/BALB cells) | lower potency compared to 9D or 9G ([10]; mBRS-3/BALB cells) | EC50 [10] | affinity greater than MK-5046 [1] | IC50/ EC50 hBRS-3/BALB ([8]; binding IC50 over [3H]IP EC50, hBRS-3/BALB cells, measure of receptor spareness) | EC50 ([8]; listed as 9 G) |
| --- | --- | --- | --- | --- | --- | --- | --- | --- | --- | --- | --- | --- | --- | --- | --- | --- | --- | --- | --- |
| Cc1ccc(Oc2cccc(CC(=O)N3CCNc4nc(C(F)(F)F)ccc4[C@H]3CC(=O)O)c2)cn1 [9F, [(5R)-4-((3-[(6-methylpyridin-3-yl)oxy]phenyl)acetyl)-8-(trifluoromethyl)-2,3,4,5-tetrahydro-1H-pyrido[2,3-e][1, 4]diazepin-5-yl]acetic acid] | 1.7-13 fold | > 3000 nM | > 3000 nM | > 3000 nM | 8 fold | 7.8 fold | 295 ± 0.5 nM | > 3000 nM | > 3000 nM | 4.3 fold | 39 nM | 39.6 ± 1 nM | > 3000 nM | 5 fold | 4.3 fold | 86.8 ± 0.8 nM | – | – | – |
| CC(C)COc1cccc(CC(=O)N2CCNc3nc(C(F)(F)F)ccc3[C@H]2CC(=O)O)c1 [9G, [(5R)-4-([3-(2-methylpropoxy)phenyl]acetyl)-8-(trifluoromethyl)-2,3,4,5-tetrahydro-1H-pyrido[2,3-e][1, 4]diazepin-5-yl]acetic acid] | – | > 3000 nM | > 3000 nM | > 3000 nM | 165 fold | – | 37.9 ± 0.8 nM | > 3000 nM | > 3000 nM | – | 9 nM | – | > 3000 nM | 3.5–3.8 fold and 4 fold | – | 20.1 ± 0.9 nM | 1.5 fold | 7.6 | 9.2 ± 0.39 nM |
